Experimental findings from US6479467B1, “Cyclodextrin ethers” (Eastman Chemical Company, priority 1999, dated 2002) are described below.

How the values of this data set were obtained:
The suspensions were stirred for 24 hours at 25° C. The undissolved residues were removed by filtration through a […] filter. The solutions were diluted with a 1:1 water/ethanol mixture and concentrations of the guest molecules were determined spectrophotometrically using an HP 8542 diode array spectrophotometer. The solubility of the guest molecules was represented as a function of the CD derivative concentration. The apparent binding constants were calculated from the slope of the solubility isotherm. The guest molecules evaluated were water-immiscible pharmaceuticals, fragrances, and other organic molecules.

For `COc1ccc(Cl)cc1C(=O)NCCc1ccc(S(=O)(=O)NC(=O)NC2CCCCC2)cc1` [Glibenclamide, glibenclamide], the “Kc(HBen-β-CD), apparent binding constant in guest molecule/CD derivative complex” value (“Kc(HBen-β-CD), apparent binding constant” below) is 136 M⁻¹ and the “Kc(HP-β-CD), apparent binding constant in guest molecule/CD derivative complex” value came to 62 M⁻¹. The matching figures for `CC(C)Cc1ccc(C(C)C(=O)O)cc1` (centres unmarked) [Ibuprofen, ibuprofen]: 520 M⁻¹ and 376 M⁻¹. Turning to `O=C(O)c1ccccc1O` [Salicylic Acid, salicylic acid], the “Kc(HBen-β-CD), apparent binding constant” value is 183 M⁻¹. Regarding `Cc1ccccc1` [Toluene, toluene], the “Kc(HBen-β-CD), apparent binding constant” value amounted to 1111 M⁻¹ and the “Kc(HP-β-CD), apparent binding constant in guest molecule/CD derivative complex” value was 773 M⁻¹. On to “hydroxybutenyl-β-cyclodextrin [HBen-β-CD]”, for which the “Binding constants compared with HP-β-CD, in words” value was “higher binding constants than did HP-β-CD”.
